The values below come from patent US4088772A, “Methanodibenzocycloheptapyrroles” (E. I. Du Pont de Nemours and Company, priority 1975, dated 1978).

As a reminder, the LD50 is the dose expected to kill half of the subjects tested. A lower LD50 goes with greater toxicity. The ED50 is the dose at which the effect has come halfway, by size or by number of responders.

Series [1] is described as follows: in vivo. As to conditions: mouse, in vivo, po.
The test system of series [2] is female white mice. Put plainly: animal or person. Conditions: Mus musculus, po, oral, mice.
For series [3], the system named is phenylquinone-induced writhing. Put plainly: Phenylquinone writhing test (analgesia). Format: in vivo, mouse (Carworth CF1 S female). As to conditions: Table III, mice; for ED50: Mus musculus. An excerpt: This mouse test is predictive of analgesic response in humans. [E. Siegmund, R. Cadmus and G. Lee, Proc. Soc.
ED50 values were obtained graphically from the data.
On the technique in general: In writhing tests, fewer writhes than in controls are read as antinociception.

[4] abbreviates: read-out: Catatonia ED50, Table III.
Where [5] appears, read: read-out: Exploratory Loss Visual ED50, Table III.
Where [6] appears, read: read-out: Muscle Tone ED50, Table III.
Setting [7] is: read-out: Ptosis ED50, Table III.
Setting [8] is: read-out: Reflexes Grip ED50, Table III.
Setting [9] is: read-out: Reflexes Lift ED50, Table III.
Where [10] appears, read: read-out: Reflexes Pinna ED50, Table III.

Where a name gives a salt, the structure may show the parent alone. Read-outs that look alike come from different tables or passages of the source.

Compound `Clc1ccc2c(c1)[C@]13C[C@H]2c2ccccc2[C@H]1CN(CC1CCCC1)C3` (relative stereo) [Example 76, 5-Chloro-2-cyclopentylmethyl-2,3,8,12b-tetrahydro-1H-3a,8-methanodibezno[3,4:6,7]cyclohepta[1,2-c]pyrrole Hydrochloride] returned a 50% lethal dose (LD50) at 24 h in series [1] of 300 mg/kg. Further, the 50% effective dose (ED50) in series [2] (setting [4]) was 12 mg/kg; in series [2] (setting [5]), 7 mg/kg; in series [2] (setting [6]), 12 mg/kg; in series [2] (setting [7]), 7 mg/kg; in series [2] (setting [8]) it was above 324 mg/kg; in series [2] (setting [9]), 20 mg/kg. Also, the ED50 in series [2] (setting [10]) was 20 mg/kg; in series [3] (po), below 130 mg/kg.
`Fc1ccc2c(c1)[C@]13C[C@H]2c2ccccc2[C@H]1CN(CC1CCCC1)C3` (relative stereo) [Example 77, 5-Fluoro-2-cyclopentylmethyl-2,3,8,12b-tetrahydro-1H-3a,8-methanodibenzo[3,4:6,7]cyclohepta[1,2-c]pyrrole Hydrochloride]: the LD50 at 24 h in series [1] was above 324 mg/kg. Besides, the ED50 in series [2] (setting [4]) was 20 mg/kg; in series [2] (setting [5]), 7 mg/kg; in series [2] (setting [6]) it was 20 mg/kg; in series [2] (setting [7]) it was 7 mg/kg; in series [2] (setting [8]) it was above 324 mg/kg; in series [2] (setting [9]), 20 mg/kg. In addition, the results for the ED50 in series [2] (setting [10]) and in series [3] (po) were 36 mg/kg and below 130 mg/kg, respectively.
Consider `FC(F)c1ccc2c(c1)[C@]13C[C@H]2c2ccccc2[C@H]1CN(CC1CCCC1)C3` (relative stereo) [Example 78, 5-Difluoromethyl-2-cyclopentylmethyl-2,3,8,12b-tetrahydro-1H-3a,8-methanodibenzo[3,4:6,7]cyclohepta[1,2c]pyrrole Hydrochloride], for which the LD50 at 24 h in series [1] was above 324 mg/kg. For the same compound, the ED50 in series [2] (setting [4]) was 20 mg/kg; in series [2] (setting [5]) it was 7 mg/kg; in series [2] (setting [6]), 7 mg/kg; in series [2] (setting [7]), below 4 mg/kg; in series [2] (setting [8]), above 324 mg/kg; in series [2] (setting [9]), 20 mg/kg. The values for the median effective dose (ED50) in series [2] (setting [10]) and in series [3] (po) were 7 mg/kg and below 130 mg/kg, respectively.
As to `Clc1ccc2c(c1)[C@H]1CN(CC3CCCC3)C[C@@]13C[C@@H]2c1ccc(Cl)cc13` (relative stereo) [Example 79, 5,11-Dichloro-2-cyclopentylmethyl-2,3,8,12b-tetrahydro1H-3a,8-methanodibenzo[3,4:6,7]cyclohepta[1,2-c]pyrrole Hydrochloride], in series [1], the LD50 at 24 h was above 324 mg/kg. Moreover, the 50% effective dose (ED50) in series [2] (setting [4]) is 20 mg/kg; in series [2] (setting [5]), 7 mg/kg; in series [2] (setting [6]), 36 mg/kg; in series [2] (setting [7]), 7 mg/kg; in series [2] (setting [8]), above 324 mg/kg; in series [2] (setting [9]) it was 36 mg/kg. In addition, the 50% effective dose (ED50) in series [2] (setting [10]) came to 7 mg/kg. Also, in series [3] (oral), the “Phenylquinone Analgesia ED50” value was “active”.
In the case of `[N-]=[N+]=Nc1ccc2c(c1)[C@]13C[C@H]2c2ccccc2[C@H]1CN(CC1CCCC1)C3` (relative stereo) [Example 82, 5-Azido-2-cyclopentylmethyl-2,3,8,12b-tetrahydro-1H-3a,8-methanodibenzo[3,4:6,7]cyclohepta[1,2-c]-pyrrole], the LD50 at 24 h in series [1] was above 324 mg/kg. In addition, the ED50 in series [2] (setting [4]) is 60 mg/kg; in series [2] (setting [5]), 7 mg/kg; in series [2] (setting [6]), 20 mg/kg; in series [2] (setting [7]) it was 7 mg/kg; in series [2] (setting [8]), above 324 mg/kg; in series [2] (setting [9]), 60 mg/kg. The ED50 in series [2] (setting [10]) was 36 mg/kg; in series [3] (po), below 130 mg/kg.
Compound `ON=Cc1ccc2c(c1)[C@]13C[C@H]2c2ccccc2[C@H]1CN(CC1CCCC1)C3` (relative stereo) [Example 83, 5-Formyl-2-cyclopentylmethyl-2,3,8,12b-tetrahydro-1H-3a,8-methanodibenzo[3,4:6,7]cyclohepta[1,2-c]pyrrole Oxime Hydrochloride] displayed a median lethal dose (LD50) at 24 h in series [1] above 324 mg/kg. For the same compound, the ED50 in series [2] (setting [4]) was 36 mg/kg; in series [2] (setting [5]), 20 mg/kg; in series [2] (setting [6]), 36 mg/kg; in series [2] (setting [7]), 36 mg/kg; in series [2] (setting [8]) it was above 324 mg/kg; in series [2] (setting [9]) it was 60 mg/kg. In addition, the ED50 is 20 mg/kg in series [2] (setting [10]) and 2.7 mg/kg in series [3] (po).
For the compound `CNC(=O)ON=Cc1ccc2c(c1)[C@]13C[C@H]2c2ccccc2[C@H]1CN(CC1CCCC1)C3` (relative stereo) [Example 84, 5-Formyl-2-cyclopentylmethyl-2,3,8,12b-tetrahydro-1H-3a,8-methanodibenzo[3,4:6,7]cyclohepta[1,2-c]pyrrole Oxime-O-(N-methylcarbamate) Hydrochloride], the 50% lethal dose (LD50) at 24 h in series [1] was above 324 mg/kg. Also, the 50% effective dose (ED50) was 100 mg/kg in series [2] (setting [4]); 60 mg/kg in series [2] (setting [5]); 100 mg/kg in series [2] (setting [6]); 36 mg/kg in series [2] (setting [7]); above 324 mg/kg in series [2] (setting [8]); 200 mg/kg in series [2] (setting [9]). The results for the median effective dose (ED50) in series [2] (setting [10]) and in series [3] (oral) were 100 mg/kg and below 130 mg/kg, respectively.
As for `N#Cc1ccc2c(c1)[C@]13C[C@H]2c2ccccc2[C@H]1CN(CC1CCCC1)C3` (relative stereo) [Example 85, 5-Cyano-2-cyclopentylmethyl-2,3,8,12b-tetrahydro-1H-3a,8-methanodibenzo[3,4:6,7]cyclohepta[1,2-c]-pyrrole Hydrochloride], the 50% lethal dose (LD50) at 24 h in series [1] was determined as 300 mg/kg. Moreover, the 50% effective dose (ED50) in series [2] (setting [4]) is 15 mg/kg; in series [2] (setting [5]), 4.4 mg/kg; in series [2] (setting [6]), 15 mg/kg; in series [2] (setting [7]) it was 4.4 mg/kg; in series [2] (setting [8]), above 324 mg/kg; in series [2] (setting [9]), 17 mg/kg. In addition, the ED50 is 9.7 mg/kg in series [2] (setting [10]) and 1.7 mg/kg in series [3] (po).
The compound `OCc1ccc2c(c1)[C@]13C[C@H]2c2ccccc2[C@H]1CN(CC1CCCC1)C3` (relative stereo) [Example 86, 2-Cyclopentylmethyl-2,3,8,12b-tetrahydro-1H-3a,8-methanodibenzo[3,4:6,7]cyclohepta[1,2-c]pyrrole-5-methanol Hydrochloride] returned an LD50 at 24 h in series [1] above 324 mg/kg. For the same compound, the ED50 in series [2] (setting [4]) is 60 mg/kg; in series [2] (setting [5]), 12 mg/kg; in series [2] (setting [6]), 60 mg/kg; in series [2] (setting [7]) it was 7 mg/kg; in series [2] (setting [8]), 200 mg/kg; in series [2] (setting [9]) it was 36 mg/kg. In addition, the 50% effective dose (ED50) in series [2] (setting [10]) was 20 mg/kg; in series [3] (po), 26 mg/kg.
In series [1], `FCc1ccc2c(c1)[C@]13C[C@H]2c2ccccc2[C@H]1CN(CC1CCCC1)C3` (relative stereo) [Example 87, 5-Fluoromethyl-2-cyclopentylmethyl-2,3,8,12b-tetrahydro-1H-3a,8-methanodibenzo[3,4:6,7]cyclohepta[1,2-c]-pyrrole Hydrochloride] yielded a median lethal dose (LD50) at 24 h above 324 mg/kg. The ED50 was determined as 36 mg/kg in series [2] (setting [4]); 12 mg/kg in series [2] (setting [5]); 36 mg/kg in series [2] (setting [6]); 7 mg/kg in series [2] (setting [7]); 300 mg/kg in series [2] (setting [8]); 36 mg/kg in series [2] (setting [9]). Besides, the 50% effective dose (ED50) in series [2] (setting [10]) worked out at 36 mg/kg; in series [3] (po) it was 78 mg/kg.
`CNS(=O)(=O)c1ccc2c(c1)[C@]13C[C@H]2c2ccccc2[C@H]1CN(CC1CCCC1)C3` (relative stereo) [Example 88, 2-Cyclopentylmethyl-2,3,8,12b-tetrahydro-1H-3a,8-methanodibenzo[3,4:6,7]cyclohepta[1,2-c]pyrrole-5-N-methylsulfonamide Hydrochloride] gave an LD50 at 24 h in series [1] above 324 mg/kg. Moreover, the ED50 was 300 mg/kg in series [2] (setting [4]); 20 mg/kg in series [2] (setting [5]); 200 mg/kg in series [2] (setting [6]); 36 mg/kg in series [2] (setting [7]); above 324 mg/kg in series [2] (setting [8]); 200 mg/kg in series [2] (setting [9]). In addition, the 50% effective dose (ED50) is 100 mg/kg in series [2] (setting [10]) and below 130 mg/kg in series [3] (po).
